# Measured values published in patent US20240245696A1, “INHIBITORS OF DNA PK AND USES THEREOF” (BioVentures, LLC, priority 2017, published 2024).
# Entries after “also recorded” stand apart in the source; their conditions may differ.
# How the values were obtained:
# IL-2 [1] = assay: Secreted IL-2 ELISA, Jurkat cells stimulated with PMA+PHA; type: cell-based, human; details: for level of IL-2: PMA+PHA 24 hour stimulation
# Protocol: Cell Culture: Human peripheral blood mononuclear cells (PBMC,) and Jurkat cells were purchased from ATCC (PCS-800-011, Manassas, VA). Cells were maintained at 37° C. in a humidified atmosphere composed of 5% CO2. Jurkat cells were cultured in RPMI 1640 medium which was supplemented with 10% FCS and human PBMC was cultured in RPMI 1640 medium which was supplemented with 10% FCS and pen/strep. […] The NU7441 DNA-PKcs inhibitor was added at varying concentrations at the time of stimulation.
# Detection of secreted IL-2: Secreted IL-2 was detected by Human IL-2 ELISA Kit from Thermo Scientific (Waltham, MA). The manufacturer's protocol was followed. […] Jurkat cells stimulated with the anti-CD28/CD3 dynabeads were done so according to the manufacturer's protocol at a 1:1 ratio for 24 hours prior to harvesting. After stimulation, supernatant samples of Jurkat cells or PBMCs (2 million cells/mL) were collected and diluted 10 times before the assay. IL-2 standards and samples (50 μL) and Biotinylated antibody reagents (50 μL) were added to each well and the plate was incubated for 3 hours at room temperature. The plate was washed 3 times and 100 μL of Streptavidin-HRP solution was added. After 30 minutes of incubation at room temperature, the plate was washed 3 times. TMB substrate (100 μL) was added and incubated for 30 minutes in the dark at room temperature. Stop solution was added and the absorbance of each well was read at 450 nm using the plate reader.
# IL-2 [2] = assay: Secreted IL-2 ELISA, PBMCs stimulated with PHA+PMA; type: cell-based, human; details: PBMC, activation with PMA+PHA
# Protocol: Cell Culture: Human peripheral blood mononuclear cells (PBMC,) and Jurkat cells were purchased from ATCC (PCS-800-011, Manassas, VA). Cells were maintained at 37° C. in a humidified atmosphere composed of 5% CO2. Jurkat cells were cultured in RPMI 1640 medium which was supplemented with 10% FCS and human PBMC was cultured in RPMI 1640 medium which was supplemented with 10% FCS and pen/strep. Both Jurkat cells and PBMC were stimulated with PHA (50 ng/mL) and PMA (1 μg/mL) for 24 hours prior to harvesting for IL-2 detection or 6 hours prior for western blot analysis. The NU7441 DNA-PKcs inhibitor was added at varying concentrations at the time of stimulation. Detection of secreted IL-2: Secreted IL-2 was detected by Human IL-2 ELISA Kit from Thermo Scientific (Waltham, MA). The manufacturer's protocol was followed. Prior to harvesting, cells were treated with PHA (50 ng/ml) and PMA (1 μg/mL) for 24 hours with or without the NU7441 inhibitor. Jurkat cells stimulated with the anti-CD28/CD3 dynabeads were done so according to the manufacturer's protocol at a 1:1 ratio for 24 hours prior to harvesting. After stimulation, supernatant samples of Jurkat cells or PBMCs (2 million cells/mL) were collected and diluted 10 times before the assay. […] Stop solution was added and the absorbance of each well was read at 450 nm using the plate reader.
# Ca^2+ = assay: Calcium ion measurement in Jurkat cell lysates; type: cell-based, human; details: Jurkat cell lysates following activation with PMA+PHA
# Protocol: Measurements of calcium ions: Intracellular concentration of calcium ions was measured by Calcium Detection Assay Kit from Abcam (Cambridge, MA). The manufacturer's protocols were followed. Briefly, Jurkat cells (2 million cells/mL) were lysed using cold PBS with 0.1% NP-40. The cell lysates were diluted 10 times before use. After following the assay protocol, the absorbance of each sample was read at 575 nm using the plate reader.
# [3] = test system: skin allograft mouse model; assay: Mouse skin allograft; type: in vivo
# Protocol: Materials: DNA-PK inhibitor, NU7441 was purchased from Selleckchem.com and used in vivo at 10 mg/kg diluted in DMSO and 40% PEG or in vitro at 5 μM. Tacrolimus (FK506) was ordered for Sigma Aldrich and used at a concentration of 1 mg/kg in vivo.
# Mouse skin allograft: To confirm that DNA-PK inhibitors could function as an immunosuppressant in vivo, mouse skin allograft studies were performed. All studies were performed under an approved IACUC protocol. Ears from donor BALBc mice were removed and split into two removing all cartilaginous material. The ear skin was placed on an incision made to the back of a recipient C57BI6 or DNA-PK knockout (NOD.CB17-Prkdc scid/J-20) mouse. The skin was sutured in 4 places using 6-0 nylon sutures. Wounds were wrapped in gauze and ban-daids and allowed to heal for 6 days before removing the bandage. Spleens were harvested from donor mice for splenocyte isolation. On Day 0 through Day 10 (the day of sacrifice) mice were injected (100 ul) daily with one of the following: saline, Tacrolimus (1 mg/kg), or NU7441 ([…]). Mice were monitored for rejection daily which was indicated by dark, black appearance. At the time of sacrifice, mice were euthanisized according to IACUC guidelines and skin grafts removed and fixed in formalin for histology. Spleens and blood were also collected.
# Th1 T cells = assay: qPCR on T cell markers, Th1 differentiation of naïve CD4+ T cells; type: cell-based; details: naïve CD4+ T cells from mouse spleens
# Protocol: qPCR on T cell markers: Naïve CD4+ T cells were isolated by standard methods from the spleens of Balbc mice. T cells were grown in culture and treated with cytokines specific for differentiate into Th1 and Th17 subtypes. Additionally, T cells were cultured with NU7441 and FK506. qPCR was performed looking at the following markers: Batf3, RORyt, IL17, IL22, TGFBeta, Lymphotoxin, T-Bet.
# DNA-PKcs = DNA-PKcs (Homo sapiens, UniProt P78527); details: reference [24]; cited from earlier work
smiles,measurement,setting,value
O=c1cc(N2CCOCC2)oc2c(-c3cccc4c3sc3ccccc34)cccc12 [NU7441],IL-2 secretion,"IL-2 [1]; PMA (50 ng/ml)+PHA (1 μg/mL), 24 hours, concentration not stated (FIG. 1B)",significantly blocked IL-2 secretion
same,level of IL-2,IL-2 [1]; 2.5 µM NU7441,significantly decreased
same,level of IL-2,IL-2 [1]; 5 μM NU7441,further decreased
same,level of IL-2 produced,IL-2 [2],significantly reduce IL-2 production
same,concentration of Ca^2+ ions,Ca^2+,no change; also recorded: not affected
same,"level of necrosis of skin graft, average","[3]; Day 10, BALBc donor skin on C57BI6 recipient, daily injection Day 0 through Day 10",around 30%
same,rejection in skin allograft mouse model,[3]; compared to control groups treated only with saline,reduces rejection
same,visual examination of graft necrosis,[3]; treatment groups vs saline groups (severe necrosis),majority with 0% necrosis
same,"Th1 differentiation (markers T-Bet, Lymphotoxin)",Th1 T cells,promoting the expression of Th1 T cells
same,inhibition of DNA-PKcs,DNA-PKcs,potent and specific inhibitor
same,interference with ATR or ATM activation,DNA-PKcs,does not interfere
